# Experimental data as given in US20260152503A1, “SPIROBICYCLIC COMPOUNDS” (ACERAND THERAPEUTICS (HONG KONG) LIMITED, priority 2022, published 2026).
# Key:
# FGFR1 = biological target: T1, FGFR1 (Homo sapiens, UniProt P11362); assay: pERK potency assay (In Cell ELISA), DMS114 cells; type: cell-based; conditions: DMS114 (FGFR1 amplification) cells, 3 hours
# T1 construct: DMS114 (FGFR1 amplification); host or cells: DMS114
# Procedure, shortened: (§1)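 Cells with FGFR aberrations (DMS114 FGFR1 amplification, RT112 FGFR3-TACC3 fusion, AN3CA FGFR2 K310R/N549K) exposed 3 h at 37 °C to compound, final 0.000038–10 μM (4-fold dilutions). pERK (Thr202/Tyr204) quantified by In-Cell ELISA chemiluminescence; IC50 from 4-parameter sigmoidal fit.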
# FGFR2 = biological target: T2, FGFR2 (Homo sapiens, UniProt P21802, K310R/N549K); assay: pERK potency assay (In Cell ELISA), AN3CA cells; type: cell-based; conditions: for IC50: pERK, AN3CA (FGFR2/k310R, N549K) cells, 3 hours; for FGFR1 IC50/FGFR2 IC50 / FGFR3 IC50/FGFR2 IC50: selectivity ratio, pERK potency; for FGFR1 IC50/FGFR2 IC50: FGFR2 relative to FGFR1; for FGFR3 IC50/FGFR2 IC50: FGFR2 relative to FGFR3
# T2 construct: in FGFR aberrations of AN3CA (FGFR2/k310R, N549K); host or cells: AN3CA
# T2 sequence (P21802 22-821 K310R/N549K): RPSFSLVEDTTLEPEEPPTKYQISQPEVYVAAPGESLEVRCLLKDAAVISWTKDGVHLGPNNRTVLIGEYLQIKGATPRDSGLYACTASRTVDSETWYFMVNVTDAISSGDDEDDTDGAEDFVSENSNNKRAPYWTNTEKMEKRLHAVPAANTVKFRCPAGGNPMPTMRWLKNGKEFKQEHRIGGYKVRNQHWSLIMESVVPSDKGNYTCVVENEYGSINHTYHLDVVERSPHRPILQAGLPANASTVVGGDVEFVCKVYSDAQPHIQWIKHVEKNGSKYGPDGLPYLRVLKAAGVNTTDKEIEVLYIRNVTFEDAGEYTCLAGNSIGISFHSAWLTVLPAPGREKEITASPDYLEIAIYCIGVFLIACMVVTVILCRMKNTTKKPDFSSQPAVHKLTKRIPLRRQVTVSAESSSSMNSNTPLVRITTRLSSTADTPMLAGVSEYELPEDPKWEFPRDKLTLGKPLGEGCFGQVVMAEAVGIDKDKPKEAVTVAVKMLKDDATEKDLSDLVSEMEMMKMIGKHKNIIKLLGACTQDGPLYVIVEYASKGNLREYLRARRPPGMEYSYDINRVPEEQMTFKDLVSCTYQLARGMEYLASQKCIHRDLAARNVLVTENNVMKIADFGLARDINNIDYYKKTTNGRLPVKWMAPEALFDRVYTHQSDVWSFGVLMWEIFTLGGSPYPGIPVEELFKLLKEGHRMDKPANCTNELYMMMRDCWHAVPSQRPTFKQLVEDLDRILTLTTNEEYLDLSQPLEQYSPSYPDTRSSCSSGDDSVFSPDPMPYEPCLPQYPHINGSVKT
# Procedure, shortened: as §1
# AN3CA = assay: 2D cell proliferation assay, AN3CA; type: cell-based; conditions: Homo sapiens, AN3-CA, 96 hours, CTG, read-out: Cell Line, IC50 AN3CA
# Method: (§2) Low IC50 values are indicative of the high potency of the FGFR inhibitor compounds in this assay selling. […] Cell proliferation assays are performed in two-dimensional (2D)) anchorage-dependent conditions in 96 well plates (Corning® Black/Clear flat Bottom, Cat #3603) with the following cell lines: • Ba/F3 FGFR2-BICC1 (human […]): Mouse Ba/F3 cell line stably expressed exogenous human FGFR2-BICC1 fusion gene bearing V546F mutation in FGFR2 Ba/F3; • FGFR2-BICC1 (human FGFR2/[…]): Mouse Ba/F3 cell line stably expressed exogenous human FGFR2-BICC1 fusion gene bearing N549K mutation in FGFR2; • Snu-16: human gastric cancer cell with FGFR2 amplification; • KATO III: human gastric cancer cell with FGFR2 amplification; • AN3CA: Human endometrial cancer with FGFR2 mutation (k310R, N549K); • MFM-223: Human breast cancer with FGFR1/2 amplification; • MFE-296: Human endometrial cancer with FGFR2 mutation (N549K); • MFE-280: Human endometrial cancer with FGFR2 mutation ([…]); • NCI-H1581: human non-small cell lung cancer with FGFR1 amplification; • KG-1a: Acute myelogenous leukemia with FGFR1OP2-FGFR1 translocation; • DMS114: human small cell carcinoma of the lung with FGFR1 amplification; • RT112: human bladder cancer with FGFR3 overexpression/FGFR3-TACC3 fusion; • SW780: human bladder cancer with FGFR3 overexpression/FGFR3-BALAP2L1 fusion; • Hep3B: Liver cancer with FGF19 amplification (FGFR4 ligand); • AGS: Human gastric adenocarcinoma with Kras G12D mutation and FGFR wild type; • PC-9: human non-small cell lung cancer (NSCLC) with wild-type FGFR and an EGFR del19 mutation; or • H1975: human non-small cell lung cancer (NSCLC) with wild-type FGFR and EGFR L858R/T790M mutation.
# (§3) Cell lines are purchased from the American Type Culture Collection (ATCC) or Sigma. All cell lines are maintained in RPMI-1640 or DMEM supplemented with 10% heat-inactivated fetal bovine serum.
# (§4) Cells growing in the log phase are detached with Gibco™ TrypLE™ Express Enzyme and plated in 96 well plate at 3000 to 5000 cells/well in 100 μl of media. After overnight incubation at 37° C., 5% CO2 incubator, cells are treated with compounds (50 uL/well) at the final concentrations spanning from 0.000038 uM to 10 μM (4-fold serial dilution for total of 10 points). Cells are incubated at 37° C., 5% CO2, and 95% humidity incubator for 96 hours. At the end of incubation 2D CTG reagent from Promega was added to each well according to vendors recommendation and mixed for 10 min in dark. The luminescence signals are determined with a Biotek™ plate reader. Data is fitted using a sigmoidal curve analysis program (GraphPad Prism®) with variable hill slope and IC50 is determined.
# Ba/F3 FGFR2-V564F = biological target: T3, Ba/F3 FGFR2-V564F (Homo sapiens, UniProt P21802, V564F, cells depend on it); assay: 2D cell proliferation assay, Ba/F3 FGFR2-V564F; type: cell-based, mouse; conditions: 96 hours, CTG, read-out: Cell Line, IC50 Ba/F3 FGFR2-V564F
# T3 construct: fused on or other part: Q9H694 (Protein bicaudal C homolog 1)
# T3 sequence (P21802 whole entry V564F, the tested form may be a part): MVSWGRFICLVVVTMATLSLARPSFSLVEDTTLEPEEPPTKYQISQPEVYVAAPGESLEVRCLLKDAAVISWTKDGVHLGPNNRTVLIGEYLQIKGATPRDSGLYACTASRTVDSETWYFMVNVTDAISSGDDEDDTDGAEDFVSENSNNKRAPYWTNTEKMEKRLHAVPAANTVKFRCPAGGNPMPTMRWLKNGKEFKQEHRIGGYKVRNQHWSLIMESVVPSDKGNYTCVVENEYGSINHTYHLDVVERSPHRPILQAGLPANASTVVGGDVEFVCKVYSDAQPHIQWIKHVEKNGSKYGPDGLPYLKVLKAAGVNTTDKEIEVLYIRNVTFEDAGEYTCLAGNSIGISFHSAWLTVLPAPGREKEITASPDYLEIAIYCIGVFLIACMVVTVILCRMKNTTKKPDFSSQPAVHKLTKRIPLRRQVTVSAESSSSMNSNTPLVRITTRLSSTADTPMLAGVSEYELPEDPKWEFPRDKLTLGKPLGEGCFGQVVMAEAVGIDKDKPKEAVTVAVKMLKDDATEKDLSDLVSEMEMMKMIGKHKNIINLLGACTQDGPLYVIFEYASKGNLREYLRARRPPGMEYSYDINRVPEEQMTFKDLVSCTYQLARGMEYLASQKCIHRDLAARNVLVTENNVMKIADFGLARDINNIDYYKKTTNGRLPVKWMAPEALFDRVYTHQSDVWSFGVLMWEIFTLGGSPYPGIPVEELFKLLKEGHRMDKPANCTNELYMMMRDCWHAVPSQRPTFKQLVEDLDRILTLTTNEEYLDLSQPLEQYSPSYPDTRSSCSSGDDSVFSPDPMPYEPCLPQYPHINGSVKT
# Procedure, shortened: (§5)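 Cells seeded at 3000–5000 cells/well in RPMI-1640 or DMEM with 10% FBS, treated next day with compounds at 0.000038–10 μM final (4-fold, 10 points) for 96 h at 37°C, 5% CO2. Viability by CellTiter-Glo luminescence; IC50 from sigmoidal variable-slope fit.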
# FGFR3 = biological target: T4, FGFR3 (Homo sapiens, UniProt P22607); assay: pERK potency assay (In Cell ELISA), RT112 cells; type: cell-based; conditions: RT112 (FGFR3 overexpression/FGFR3-TACC3 fusion) cells, 3 hours
# T4 construct: RT112 (FGFR3 overexpression/FGFR3-TACC3 fusion); host or cells: RT112; the other entry of the earlier key: TACC3 (Q9Y6A5, Transforming acidic coiled-coil-containing protein 3)
# Procedure, shortened: as §1
# Ba/F3 FGFR2-N549K = biological target: T5, Ba/F3 FGFR2-N549K (Homo sapiens, UniProt P21802, N549K, cells depend on it); assay: 2D cell proliferation assay, Ba/F3 FGFR2-N549K; type: cell-based, mouse; conditions: 96 hours, CTG, read-out: Cell Line, IC50 Ba/F3 FGFR2-N549K
# T5 construct: fused on or other part: Q9H694 (Protein bicaudal C homolog 1)
# T5 sequence (P21802 whole entry N549K, the tested form may be a part): as the sequence (P21802 whole entry V564F, the tested form may be a part) above, with N549K, F564V counted along it
# Procedure, shortened: as §5
# SNU-16 = assay: 2D cell proliferation assay, SNU-16; type: cell-based; conditions: Homo sapiens, 96 hours, CTG, read-out: Cell Line, IC50 SNU-16
# Method: as §2, §3, §4
# KATO III = assay: 2D cell proliferation assay, KATO III; type: cell-based; conditions: Homo sapiens, 96 hours, CTG, read-out: Cell Line, IC50 KATO III
# Method: as §2, §3, §4
# T1 sequence (P11362 22-822): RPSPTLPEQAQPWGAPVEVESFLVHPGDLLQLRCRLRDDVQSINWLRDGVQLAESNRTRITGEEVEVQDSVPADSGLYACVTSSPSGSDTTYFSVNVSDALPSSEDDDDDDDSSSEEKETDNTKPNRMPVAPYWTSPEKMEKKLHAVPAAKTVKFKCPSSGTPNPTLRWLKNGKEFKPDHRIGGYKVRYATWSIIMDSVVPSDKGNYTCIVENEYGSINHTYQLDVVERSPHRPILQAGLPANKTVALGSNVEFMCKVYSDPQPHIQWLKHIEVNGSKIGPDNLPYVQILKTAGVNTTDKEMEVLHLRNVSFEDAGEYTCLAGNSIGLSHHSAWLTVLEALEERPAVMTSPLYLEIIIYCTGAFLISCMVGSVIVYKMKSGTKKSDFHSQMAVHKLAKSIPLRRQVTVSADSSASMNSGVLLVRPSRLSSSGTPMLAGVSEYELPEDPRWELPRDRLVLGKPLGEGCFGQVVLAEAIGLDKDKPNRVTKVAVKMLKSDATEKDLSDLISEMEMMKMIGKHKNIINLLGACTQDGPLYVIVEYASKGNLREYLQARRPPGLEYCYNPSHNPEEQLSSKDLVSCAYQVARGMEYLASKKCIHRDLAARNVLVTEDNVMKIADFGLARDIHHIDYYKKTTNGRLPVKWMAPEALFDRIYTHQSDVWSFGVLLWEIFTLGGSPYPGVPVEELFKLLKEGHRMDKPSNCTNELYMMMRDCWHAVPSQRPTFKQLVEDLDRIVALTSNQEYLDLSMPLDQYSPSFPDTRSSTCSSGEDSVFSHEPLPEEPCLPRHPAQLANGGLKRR
Structure (SMILES),IC50 (FGFR1) [nM],IC50 (FGFR2) [nM],FGFR1 IC50/FGFR2 IC50 (FGFR2),FGFR3 IC50/FGFR2 IC50 (FGFR2),IC50 (AN3CA) [nM],GI50 (Ba/F3 FGFR2-V564F) [nM],IC50 (FGFR3) [nM],GI50 (Ba/F3 FGFR2-N549K) [nM],IC50 (SNU-16) [nM],IC50 (KATO III) [nM]
"C=CC(=O)N1CCC2(CC=C(c3c(C#N)c4c(N)ncnc4n3C)CC2)CC1 [Example 57, 6-(3-acryloyl-3-azaspiro[5.5]undec-8-en-9-yl)-4-amino-7-methyl-7H-pyrrolo[2,3-d]pyrimidine-5-carbonitrile]",> 100,1 to 10,G (a selectivity ratio greater than 150 but less than or equal to 500),H (a selectivity ratio greater than 500 but less than or equal to 1000),1 to 10,> 100,> 100,10 to 30,1 to 10,1 to 10
"C=CC(=O)N1CCC2(CC=C(c3[nH]c4ncnc(N)c4c3-c3ncccn3)CC2)CC1 [Example 58, 1-(9-(4-amino-5-(pyrimidin-2-yl)-7H-pyrrolo[2,3-d]pyrimidin-6-yl)-3-azaspiro[5.5]undec-8-en-3-yl)prop-2-en-1-one]",> 100,1 to 10,G (a selectivity ratio greater than 150 but less than or equal to 500),H (a selectivity ratio greater than 500 but less than or equal to 1000),1 to 10,1 to 10,> 100,10 to 30,10 to 30,10 to 30
"C=CC(=O)N1CCC2(CC=C(c3c(-c4cnccn4)c4c(N)ncnc4n3C)CC2)CC1 [Example 59, 1-(9-(4-amino-7-methyl-5-(pyrazin-2-yl)-7H-pyrrolo[2,3-d]pyrimidin-6-yl)-3-azaspiro[5.5]undec-8-en-3-yl)prop-2-en-1-one]",> 100,1 to 10,F (a selectivity ratio greater than 50 but less than or equal to 150),H (a selectivity ratio greater than 500 but less than or equal to 1000),30 to 100,≤ 1,> 100,1 to 10,30 to 100,30 to 100
"C=CC(=O)N1CCC2(CC=C(c3c(-c4ccc(Oc5nccc(C)n5)c(F)c4)c4c(N)ncnc4n3C)CC2)CC1 [Example 62, 1-(9-(4-amino-5-(3-fluoro-4-((4-methylpyrimidin-2-yl)oxy)phenyl)-7-methyl-7H-pyrrolo[2,3-d]pyrimidin-6-yl)-3-azaspiro[5.5]undec-8-en-3-yl)prop-2-en-1-one]",> 100,1 to 10,F (a selectivity ratio greater than 50 but less than or equal to 150),G (a selectivity ratio greater than 150 but less than or equal to 500),30 to 100,≤ 1,> 100,10 to 30,10 to 30,10 to 30
